These results are taken from ChEMBL document CHEMBL1201862, “PubChem BioAssay data set” (2004).

Each structure is given as a SMILES string.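 Cultured in 96-well plates, cells were exposed to test compound for 48 hours across five concentrations. GI50: concentration for 50% inhibition of growth.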 The source made the active and inactive calls. Cut-off read from the data, not from the text of the source: active = GI50 up to about 1.1 µM and inactive = higher. Some results are limits rather than exact numbers.

Test systems include ACHN; EKVX; HCC 2998; HL-60; KM-20L2; NCI-H23; NCI-H460; OVCAR-3; OVCAR-5; SK-MEL-5; TK-10; LOX IMVI; RPMI-8226; SNB-19; DU-145; MCF7; MDA-MB-231; MDA-MB-435; NCI/ADR-RES; T47D.
What all share (assay): NCI anticancer screen, dose series, 48 h

For `COC(=O)/C(=N\NC(=O)c1ccccc1O)C(C#N)c1ccc(Cl)cc1` (stereo not given), the GI50 is 5.85 µM (inactive) in the test on ACHN; 15.6 µM (inactive) in the test on EKVX; 30.3 µM (inactive) with HCC 2998; 24.9 µM (inactive) with HL-60; 33.8 µM (inactive) in the test on KM-20L2; 24.4 µM (inactive) in the test with NCI-H23. The GI50 with NCI-H460 is 39 µM (inactive); in the test with OVCAR-3 it was 29.9 µM (inactive); in the test on OVCAR-5, 34.9 µM (inactive); with SK-MEL-5, 16.7 µM (inactive); in the test with TK-10, > 100 µM (inactive).
For the molecule `O=C(CSc1nnc(-c2ccc(/N=C\c3ccc(Cl)cc3)cc2)o1)Nc1ccc([N+](=O)[O-])cc1`, the GI50 is 11.9 µM (inactive) in the test with ACHN; > 100 µM (inactive) in the test on EKVX; 26.4 µM (inactive) in the test on HL-60; 27.2 µM (inactive) with KM-20L2; 10.6 µM (inactive) in the test on LOX IMVI; 19.4 µM (inactive) with NCI-H23. Besides, the GI50 was 36.4 µM (inactive) in the test with NCI-H460; 2.45 µM (inactive) in the test with RPMI-8226; 18.4 µM (inactive) in the test on SK-MEL-5; 16.6 µM (inactive) in the test on SNB-19; 51.4 µM (inactive) in the test with TK-10.
For `CCC12C[N+]3([O-])CCc4c([nH]c5ccccc45)C(C(=O)OC)(c4cc5c(cc4OC)N(C)C4C(O)(C(=O)OC)C(OC(C)=O)C6(CC)C=CCN7CCC54C76)CC(C3)C1O2` (stereo not given), the GI50 in the test with ACHN was 10.5 µM (inactive); in the test on EKVX it was 0.467 µM (active); in the test with HCC 2998, 2.55 µM (inactive); in the test on KM-20L2, 0.256 µM (active); in the test with LOX IMVI, 1.09 µM (active); with NCI-H23, 0.465 µM (active). Besides, the GI50 in the test on NCI-H460 is 0.424 µM (active); with OVCAR-3, 0.337 µM (active); with OVCAR-5, 3.94 µM (inactive); with RPMI-8226, 0.331 µM (active); in the test on SK-MEL-5 it was 0.288 µM (active); in the test with SNB-19 it was 0.597 µM (active). Also, in the test on TK-10, the GI50 is 5.62 µM (inactive).
For `O=C(CSc1nnc(-c2ccc(/N=C\c3ccc(Cl)cc3)cc2)o1)Nc1cccc([N+](=O)[O-])c1`, the GI50 in the test with ACHN, in the test with EKVX, with HL-60, with KM-20L2, in the test on LOX IMVI and with NCI-H23 was > 100 µM (inactive) each time. In addition, the GI50 in the test with NCI-H460, in the test with RPMI-8226, in the test on SK-MEL-5, with SNB-19 and in the test on TK-10 was > 100 µM (inactive) throughout.
For `Nc1c(C(=O)Nc2ccccc2O)[n+]([O-])c2ccccc2[n+]1[O-]`, the GI50 with ACHN was 87.5 µM (inactive); with EKVX it was > 100 µM (inactive); in the test on HL-60, 25.8 µM (inactive); in the test with KM-20L2 it was > 100 µM (inactive); with NCI-H23, 23.9 µM (inactive); in the test on NCI-H460 it was 27 µM (inactive). The GI50 in the test on OVCAR-3 is 29.9 µM (inactive); in the test on OVCAR-5 it was > 100 µM (inactive); in the test on RPMI-8226 it was 22.3 µM (inactive); in the test on SK-MEL-5 it was 14.7 µM (inactive); in the test with SNB-19, > 100 µM (inactive).
Regarding `COc1ccc2c(c1)CN([C@@H](C)[C@H]1CC[C@H]3[C@@H]4CC[C@H]5C[C@@H](O)CC[C@]5(C)[C@H]4CC[C@]13C)CO2`, the GI50 is 3.21 µM (inactive) with ACHN; 4.68 µM (inactive) with DU-145; 3.36 µM (inactive) in the test with EKVX; 1.61 µM (inactive) in the test with HCC 2998; 2.47 µM (inactive) with HL-60; 1.58 µM (inactive) in the test on LOX IMVI. Further, the GI50 is 3.7 µM (inactive) with MCF7; 2.42 µM (inactive) with MDA-MB-231; 1.75 µM (inactive) in the test with MDA-MB-435; 1.89 µM (inactive) in the test with NCI-H23; 1.23 µM (inactive) in the test with NCI-H460; 3.37 µM (inactive) with NCI/ADR-RES. Also, the GI50 with OVCAR-3 is 5.79 µM (inactive); with OVCAR-5, 3.13 µM (inactive); in the test on RPMI-8226, 0.541 µM (active); with SK-MEL-5, 1.69 µM (inactive); in the test on SNB-19 it was 1.96 µM (inactive); in the test with T47D, 3.56 µM (inactive). Besides, in the test with TK-10, the GI50 was 2.79 µM (inactive).
As to `N#Cc1nc(CCC(C(=O)O)N2C(=O)c3ccccc3C2=O)oc1N` (stereo not given), the GI50 in the test on ACHN was > 100 µM (inactive); in the test with DU-145, > 100 µM (inactive); with EKVX it was > 100 µM (inactive); with HCC 2998 it was > 100 µM (inactive); in the test on HL-60, > 100 µM (inactive); with LOX IMVI it was > 10 µM (inactive). The GI50 with MCF7, in the test on MDA-MB-231, with MDA-MB-435, in the test on NCI-H23, with NCI-H460 and in the test on NCI/ADR-RES was > 100 µM (inactive) each time. The GI50 in the test on OVCAR-3, with OVCAR-5, in the test on RPMI-8226, with SK-MEL-5, in the test on SNB-19 and in the test with T47D was > 100 µM (inactive) in each case. Also, the GI50 in the test on TK-10 is > 100 µM (inactive).
As for `Nc1ccc(C(=O)CC(N)C(=O)O)cc1O` (stereo not given), the GI50 in the test with ACHN, with DU-145, in the test on EKVX, in the test on HCC 2998, with HL-60 and in the test on LOX IMVI was > 100 µM (inactive) throughout. The GI50 in the test with MCF7, with MDA-MB-231, in the test with MDA-MB-435, in the test with NCI-H23, with NCI-H460 and in the test with NCI/ADR-RES was > 100 µM (inactive) each time. Also, the GI50 with OVCAR-3, with OVCAR-5, in the test on RPMI-8226, in the test on SK-MEL-5, in the test on SNB-19 and in the test on T47D was > 100 µM (inactive) in each case. Moreover, the GI50 in the test on TK-10 is > 100 µM (inactive).
In the case of `CC(=O)Oc1c(C)cc2c(c1C)C(C)(C)CN2C(=O)C(C)(C)C`, the GI50 is > 100 µM (inactive) in the test with ACHN; > 100 µM (inactive) in the test on DU-145; > 100 µM (inactive) in the test with EKVX; > 100 µM (inactive) in the test on HCC 2998; 63.8 µM (inactive) in the test on HL-60; > 100 µM (inactive) in the test with LOX IMVI. The GI50 in the test with MCF7 is > 100 µM (inactive); with MDA-MB-231 it was > 100 µM (inactive); in the test on MDA-MB-435, 77.8 µM (inactive); in the test on NCI-H23, 81.1 µM (inactive); with NCI-H460, > 100 µM (inactive); in the test with NCI/ADR-RES, 45.3 µM (inactive). Moreover, the GI50 is 25.2 µM (inactive) in the test on OVCAR-3; > 100 µM (inactive) in the test on OVCAR-5; 53.8 µM (inactive) in the test with RPMI-8226; 42.3 µM (inactive) in the test with SK-MEL-5; > 100 µM (inactive) with SNB-19; 31.6 µM (inactive) with T47D. Also, the GI50 in the test on TK-10 is > 100 µM (inactive).
For `CC1=NN(C(=O)CC(=O)Nc2cccc(Cl)c2)C(=O)C1/N=N\c1ccc(S(=O)(=O)c2ccc(/N=N/C3C(=O)N(C(=O)CC(=O)Nc4cccc(Cl)c4)N=C3C)cc2)cc1` (stereo not given), the GI50 in the test with ACHN was > 100 µM (inactive); in the test with DU-145, 83.8 µM (inactive); in the test on EKVX it was > 100 µM (inactive); in the test with HCC 2998, > 100 µM (inactive); with HL-60, > 100 µM (inactive); in the test with LOX IMVI it was > 100 µM (inactive). Besides, the GI50 with MCF7 was > 100 µM (inactive); with MDA-MB-231, 16.1 µM (inactive); in the test with MDA-MB-435, > 100 µM (inactive); in the test with NCI-H23, > 100 µM (inactive); in the test on NCI-H460, > 100 µM (inactive); in the test with NCI/ADR-RES, > 100 µM (inactive). Also, the GI50 in the test on OVCAR-3 was > 100 µM (inactive); with OVCAR-5, > 100 µM (inactive); in the test on RPMI-8226 it was > 100 µM (inactive); in the test on SK-MEL-5, 40.8 µM (inactive); in the test on SNB-19, > 100 µM (inactive); with T47D, > 100 µM (inactive). For the same molecule, in the test on TK-10, the GI50 was > 100 µM (inactive).
As for `O=CNc1ccccc1OCCOc1ccccc1NC=O`, the GI50 in the test on ACHN, in the test on DU-145, in the test with EKVX, with HCC 2998, in the test with HL-60 and in the test with LOX IMVI was > 100 µM (inactive) throughout. Also, the GI50 with MCF7, with MDA-MB-231, in the test with MDA-MB-435, in the test with NCI-H23, in the test with NCI-H460 and in the test with NCI/ADR-RES was > 100 µM (inactive) each time. Besides, the GI50 in the test with OVCAR-3, in the test with OVCAR-5, with RPMI-8226, with SK-MEL-5, with SNB-19 and with T47D was > 100 µM (inactive) throughout. The GI50 with TK-10 was > 100 µM (inactive).
On to `c1cncc(C2(c3cc4ccccc4[nH]3)COCO2)c1` (stereo not given), for which the GI50 in the test on ACHN was 77.3 µM (inactive); in the test with DU-145, > 100 µM (inactive); in the test with EKVX, > 100 µM (inactive); in the test on HCC 2998 it was > 100 µM (inactive); in the test with HL-60, 32.7 µM (inactive); in the test with LOX IMVI, > 100 µM (inactive). In addition, the GI50 in the test on MCF7, in the test on MDA-MB-231, in the test with MDA-MB-435, in the test with NCI-H23, in the test on NCI-H460 and in the test on NCI/ADR-RES was > 100 µM (inactive) each time. The GI50 in the test on OVCAR-3 is > 100 µM (inactive); in the test with OVCAR-5, > 100 µM (inactive); in the test with RPMI-8226, > 100 µM (inactive); with SK-MEL-5 it was 38.2 µM (inactive); with SNB-19, > 100 µM (inactive); in the test with T47D, > 100 µM (inactive). In addition, in the test with TK-10, the GI50 was > 100 µM (inactive).
